US7205305B2, “Inhibitors of p38” (Vertex Pharmaceuticals Incorporated, priority 1996, dated 2007)

Target: activated p38 (Homo sapiens, UniProt Q16539)
Test: Inhibition of phosphorylation of EGF receptor peptide ("kinase")
Format: biochemical
Conditions: inhibition of phosphorylation of EGF receptor peptide by activated p38
Method: This assay was carried out in the presence of 10 mM MgCl2, 25 mM β-glycerophosphate, 10% glycerol and 100 mM HEPES buffer at pH 7.6. […] The stock solution was aliquotted into vials. A fixed volume of DMSO or inhibitor in DMSO (final concentration of DMSO in reaction was 5%) was introduced to each vial, mixed and incubated for 15 minutes at room temperature. EGF receptor peptide, […], a phosphoryl acceptor in p38-catalyzed kinase reaction (1), was added to each vial to a final concentration of 200 μM. The kinase reaction was initiated with ATP (100 μM) and the vials were incubated at 30° C. After 30 minutes, the reactions were quenched with equal volume of 10% trifluoroacetic acid (TFA).
The phosphorylated peptide was quantified by HPLC analysis. Separation of phosphorylated peptide from the unphosphorylated peptide was achieved on a reverse phase column (Deltapak, 5 μm, C18 100D, part no. 011795) with a binary gradient of water and acteonitrile, each containing 0.1% TFA.

Sequence of activated p38 (Q16539 whole entry): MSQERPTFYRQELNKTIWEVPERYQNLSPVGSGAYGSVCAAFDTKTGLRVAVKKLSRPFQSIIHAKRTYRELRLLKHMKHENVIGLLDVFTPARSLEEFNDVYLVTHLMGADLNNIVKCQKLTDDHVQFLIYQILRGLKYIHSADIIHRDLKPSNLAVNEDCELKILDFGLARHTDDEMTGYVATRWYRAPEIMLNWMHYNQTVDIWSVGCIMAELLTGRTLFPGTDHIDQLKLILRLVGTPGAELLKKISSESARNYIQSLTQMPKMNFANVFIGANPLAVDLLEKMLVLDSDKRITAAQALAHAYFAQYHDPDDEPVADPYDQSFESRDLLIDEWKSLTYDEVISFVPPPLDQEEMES

Compound	IC50
NC(=O)C(c1cccc(-c2cc3ccccc3o2)n1)c1c(Cl)cccc1Cl (stereo not drawn) [Compound 355]	≥ 1 µM
CCc1ccccc1-c1cccc(C(C(N)=O)c2c(Cl)cccc2Cl)n1 (stereo not drawn) [Compound 377]	≤ 0.1 µM
NC(=O)C(c1cccc(-c2ccc(Cl)cc2)n1)c1c(F)cccc1Cl (stereo not drawn) [Compound 330]	≥ 1 µM
NC(=O)C(c1cccc(-c2cccc(Cl)c2Cl)n1)c1c(Cl)cccc1Cl (stereo not drawn) [Compound 382]	≤ 0.1 µM
NC(=O)C(c1cccc(-c2ccc(C(F)(F)F)cc2)n1)c1c(Cl)cccc1Cl (stereo not drawn) [Compound 319]	≥ 1 µM
NC(=O)C(c1cccc(-c2ccccc2)n1)c1c(F)cccc1F (stereo not drawn) [Compound 366]	≥ 1 µM
O=C(CN1CCOCC1)Nc1ccc(-c2c(=O)ncn3nc(Sc4ccc(F)cc4)ccc23)c(Cl)c1 [Compound 52]	0.1 to 1 µM
NC(=O)C(c1cccc(-c2ccc(C(F)(F)F)cc2)n1)c1c(F)cccc1Cl (stereo not drawn) [Compound 340]	≥ 1 µM
NC(=O)C(c1cccc(-c2ccccc2F)n1)c1c(Cl)cccc1Cl (stereo not drawn) [Compound 383]	≤ 0.1 µM
Nc1ccc(F)c(-c2c(=O)ncn3nc(Sc4ccc(F)cc4)ccc23)c1Cl [Compound 42]	≥ 1 µM
NC(=O)C(c1cccc(-c2cccc(C=O)c2)n1)c1c(F)cccc1Cl (stereo not drawn) [Compound 342]	≥ 1 µM
NC(=O)C(c1cccc(-c2ccc(Cl)s2)n1)c1c(F)cccc1Cl (stereo not drawn) [Compound 347]	≥ 1 µM
CSc1ccc(-c2cccc(C(C(N)=O)c3c(F)cccc3Cl)n2)cc1 (stereo not drawn) [Compound 334]	≥ 1 µM
NC(=O)C(c1cccc(-c2cccc(CO)c2)n1)c1c(Cl)cccc1Cl (stereo not drawn) [Compound 380]	0.1 to 1 µM
COc1ccc(-c2c(=O)ncn3nc(Sc4ccccc4)ccc23)cc1 [Compound 10]	≥ 1 µM
NC(=O)C(c1cccc(-c2ccccc2C=O)n1)c1c(F)cccc1Cl (stereo not drawn) [Compound 348]	≥ 1 µM
NC(=O)C(c1cccc(-c2ccc3ccccc3c2)n1)c1c(Cl)cccc1Cl (stereo not drawn) [Compound 354]	≥ 1 µM
NC(=O)C(c1cccc(-c2cccc([N+](=O)[O-])c2)n1)c1c(F)cccc1Cl (stereo not drawn) [Compound 328]	≥ 1 µM
NC(=O)C(c1cccc(-c2ccsc2)n1)c1c(F)cccc1Cl (stereo not drawn) [Compound 339]	≥ 1 µM
COc1ccccc1-c1cccc(C(C(N)=O)c2c(F)cccc2Cl)n1 (stereo not drawn) [Compound 345]	≥ 1 µM
COc1cccc(-c2cccc(C(C(N)=O)c3c(F)cccc3Cl)n2)c1 (stereo not drawn) [Compound 343]	≥ 1 µM

Compound	IC50
COCOc1cc(F)ccc1-c1cccc(C(C(N)=O)c2c(Cl)cccc2Cl)n1 (stereo not drawn) [Compound 389]	0.1 to 1 µM
NC(=O)C(c1cccc(-c2ccc(C=O)cc2)n1)c1c(F)cccc1Cl (stereo not drawn) [Compound 337]	≥ 1 µM
CC(=O)Nc1ccc(-c2c(=O)ncn3nc(Sc4ccc(F)cc4)ccc23)c(Cl)c1 [Compound 51]	0.1 to 1 µM
NC(=O)C(c1cncc(-c2ccccc2)n1)c1c(Cl)cccc1Cl (stereo not drawn) [Compound 384]	0.1 to 1 µM
NC(=O)C(c1cccc(-c2ccc(F)cc2O)n1)c1c(Cl)cccc1Cl (stereo not drawn) [Compound 390]	≥ 1 µM
NC(=O)C(c1cccc(-c2ccc(F)cc2CO)n1)c1c(Cl)cccc1Cl (stereo not drawn) [Compound 394]	≤ 0.1 µM
NC(=O)C(c1ccc(Sc2ccc(F)cc2Cl)nn1)c1ccc(N)cc1Cl (stereo not drawn) [Compound 207]	≥ 1 µM
CN(C)/C=N\c1ccc(-c2c(=O)ncn3nc(Sc4ccc(F)cc4)ccc23)c(Cl)c1 [Compound 50]	≥ 1 µM
COCOc1ccccc1-c1cccc(C(C(N)=O)c2c(Cl)cccc2Cl)n1 (stereo not drawn) [Compound 385]	0.1 to 1 µM
NC(=O)C(c1ccc(Sc2ccccc2)nn1)c1ccc(Cl)cc1Cl (stereo not drawn) [Compound 203]	≥ 1 µM
NC(=O)C(c1cccc(-c2ccc(F)cc2F)n1)c1c(Cl)cccc1Cl (stereo not drawn) [Compound 396]	≤ 0.1 µM
Cc1cccc(C)c1C(C(N)=O)c1cccc(-c2ccccc2)n1 (stereo not drawn) [Compound 381]	0.1 to 1 µM
NC(=O)C(c1cccc(-c2ccc(Cl)s2)n1)c1c(Cl)cccc1Cl (stereo not drawn) [Compound 326]	≥ 1 µM
Cc1cccc(-c2cccc(C(C(N)=O)c3c(Cl)cccc3Cl)n2)c1C (stereo not drawn) [Compound 376]	≤ 0.1 µM
NCCNCc1ccccc1-c1cccc(C(C(N)=O)c2c(Cl)cccc2Cl)n1 (stereo not drawn) [Compound 359]	≥ 1 µM
COCOCc1cc(F)ccc1-c1cccc(C(C(N)=O)c2c(Cl)cccc2Cl)n1 (stereo not drawn) [Compound 393]	0.1 to 1 µM
NC(=O)C(c1cccc(-c2cccc([N+](=O)[O-])c2)n1)c1c(Cl)cccc1Cl (stereo not drawn) [Compound 308]	≥ 1 µM
NC(=O)C(c1cccc(-c2ccccc2CNCC(O)CO)n1)c1c(Cl)cccc1Cl (stereo not drawn) [Compound 360]	≥ 1 µM
NC(=O)C(c1ccc(F)cc1)c1ccc(Sc2ccccc2)nn1 (stereo not drawn) [Compound 204]	≥ 1 µM
Cc1ccc(-c2cccc(C(C(N)=O)c3c(F)cccc3Cl)n2)cc1 (stereo not drawn) [Compound 331]	≥ 1 µM
NC(=O)C(c1cccc(-c2ccc(C=O)cc2)n1)c1c(Cl)cccc1Cl (stereo not drawn) [Compound 316]	≥ 1 µM

Compound	IC50
NC(=O)C(c1cccc(-c2ccccc2C(F)(F)F)n1)c1c(Cl)cccc1Cl (stereo not drawn) [Compound 374]	0.1 to 1 µM
NC(=O)C(c1cccc(-c2cc(Cl)cc(Cl)c2)n1)c1c(Cl)cccc1Cl (stereo not drawn) [Compound 392]	0.1 to 1 µM
NC(=O)C(c1cccc(-c2cc3ccccc3s2)n1)c1c(Cl)cccc1Cl (stereo not drawn) [Compound 356]	≥ 1 µM
NC(=O)C(c1cccc(-c2ccsc2)n1)c1c(Cl)cccc1Cl (stereo not drawn) [Compound 318]	0.1 to 1 µM
NC(=O)C(c1cccc(-c2ccccc2)n1)c1cc2c(cc1Cl)OCO2 (stereo not drawn) [Compound 397]	≥ 1 µM
Cc1ccc(Sc2ccc(C(C(N)=O)c3ccc(Cl)cc3Cl)nn2)cc1 (stereo not drawn) [Compound 205]	≥ 1 µM
NC(=O)C(c1cccc(-c2occc2C=O)n1)c1c(F)cccc1Cl (stereo not drawn) [Compound 357]	≥ 1 µM
NC(=O)C(c1cccc(-c2cc(C(F)(F)F)cc(C(F)(F)F)c2)n1)c1c(Cl)cccc1Cl (stereo not drawn) [Compound 387]	≥ 1 µM
Cc1cc(-c2cccc(C(C(N)=O)c3c(Cl)cccc3Cl)n2)ccc1F (stereo not drawn) [Compound 395]	≤ 0.1 µM
NC(=O)C(c1cccc(-c2c(F)cc(F)cc2F)n1)c1c(Cl)cccc1Cl (stereo not drawn) [Compound 399]	≤ 0.1 µM
NC(=O)C(c1cccc(-c2cccc(C(F)(F)F)c2)n1)c1c(Cl)cccc1Cl (stereo not drawn) [Compound 379]	≤ 0.1 µM
O=c1ncn2nc(Sc3ccc(F)cc3Cl)ccc2c1-c1cc2c(cc1Cl)OCO2 [Compound 45]	0.1 to 1 µM
Nc1cc(F)c(F)cc1SC1=NN2CNC(=O)C(c3c(Cl)cccc3Cl)=C2C=C1 [Compound 119]	0.1 to 1 µM
NC(=O)C(c1cccc(-c2ccccc2Cl)n1)c1c(Cl)cccc1Cl (stereo not drawn) [Compound 375]	≤ 0.1 µM
NC(=O)C(c1cccc(-c2cccs2)n1)c1c(F)cccc1Cl (stereo not drawn) [Compound 338]	≥ 1 µM
NC(=O)C(c1cccc(-c2cc(F)c(F)c(F)c2)n1)c1c(Cl)cccc1Cl (stereo not drawn) [Compound 388]	≤ 0.1 µM
NC(=O)C(c1cccc(-c2cccc(C=O)c2)n1)c1c(Cl)cccc1Cl (stereo not drawn) [Compound 321]	≥ 1 µM
Cc1c(Cl)cccc1-c1cccc(C(C(N)=O)c2c(Cl)cccc2Cl)n1 (stereo not drawn) [Compound 1301]	≤ 0.1 µM
NC(=O)C(c1cccc(-c2ccc(F)cc2C(F)(F)F)n1)c1c(Cl)cccc1Cl (stereo not drawn) [Compound 391]	0.1 to 1 µM
NC(=O)C(c1cccc(-c2ccccc2O)n1)c1c(Cl)cccc1Cl (stereo not drawn) [Compound 386]	≥ 1 µM
CSc1ccc(-c2cccc(C(C(N)=O)c3c(Cl)cccc3Cl)n2)cc1 (stereo not drawn) [Compound 314]	≥ 1 µM
